US10342867B2 (priority 2014, dated 2019)

Key:
[1] = rabbit, in vivo
[2] = rabbit, in vivo; remark: listed apart in the source
[3] = rabbit, in vivo; remark: listed apart in the source
[4] = rabbit, in vivo; remark: listed apart in the source
[5] = rabbit, in vivo; remark: listed apart in the source

Substance: Monosulphate heptadecylmaltose [M10-MONO]
- Body temperature one day after the first immunization, Mean [1]: 38.9 °C
- Body temperature one day after the second immunization, Mean [1]: 39.2 °C
- Number of animals demonstrating a detectable adverse local reaction four weeks after the first immunization [2]: 0/6
- Number of animals demonstrating a detectable adverse local reaction one week after the second immunization [2]: 0/6
- Increase in body temperature one day post immunization 1, mean [3]: 0.5 °C
- Increase in body temperature two days post immunization 1, mean [3]: 0.1 °C
- increases in body temperature in comparison to the corresponding POLY counterpart [3]: lower increases
- Body weight gain one week post immunization 1, mean [4]: 35 g
- Body weight gain two weeks post immunization 1, mean [4]: 49 g
- Reactogenicity 1 week post immunization 2, GMS [5]: 1.34
- Reactogenicity 1 week post immunization 2, antilog [5]: 22
- Reactogenicity 4 weeks post immunization 1, GMS [5]: 1.26
- Reactogenicity 4 weeks post immunization 1, antilog [5]: 18

Substance: Monosulphate heptadodecylmaltose [M12-MONO]
- Body temperature one day after the first immunization, Mean [1]: 39.0 °C
- Body temperature one day after the second immunization, Mean [1]: 39.2 °C
- Number of animals demonstrating a detectable adverse local reaction four weeks after the first immunization [2]: 0/6
- Number of animals demonstrating a detectable adverse local reaction one week after the second immunization [2]: 0/6

Substance: Monosulphate tetradodecyl galactose [G12-MONO]
- Body temperature one day after the first immunization, Mean [1]: 39.1 °C
- Body temperature one day after the second immunization, Mean [1]: 39.3 °C
- Number of animals demonstrating a detectable adverse local reaction four weeks after the first immunization [2]: 1/6 (discoloration, loss
- Number of animals demonstrating a detectable adverse local reaction one week after the second immunization [2]: 1/6 (granuloma)

Substance: maltose decanoic acid polysulphate ester [M10-POLY]
- Increase in body temperature one day post immunization 1, mean [3]: 0.7 °C
- Increase in body temperature two days post immunization 1, mean [3]: 0.5 °C
- Body weight gain one week post immunization 1, mean [4]: 38 g
- Body weight gain two weeks post immunization 1, mean [4]: 53 g
- Reactogenicity 1 week post immunization 2, GMS [5]: 3.37
- Reactogenicity 4 weeks post immunization 1, GMS [5]: 1.73
- Reactogenicity 4 weeks post immunization 1, antilog [5]: 53
